The source of these data is patent US20080300298A1, “Honokiol Derivates For the Treatment of Proliferative Disorders” (priority 2005, published 2008).

In one experiment the test system is MM.1S cells. Kind of experiment: cells. The settings on record: Homo sapiens, MM1.S, read-out: percentage of nonviable cells by trypan blue exclusion. It is filed as cell-based. Here is the method:
Assessment of HNK-induced cytotoxicity against patient MM cells: Cytotoxicity of HNK against fresh MM cells was determined as previously determined, see, for example, Mitsiades et al Cancer Cell. 2004; 5:221-230. Fresh MNCs separated from bone marrow samples derived from patients with MM were incubated with PE-conjugated anti-CD138 antibody and/or FITC-conjugated anti-CD38 antibody (BD Biosciences, San Diego, Calif.) for 30 minutes on ice and washed, followed by analysis using EPICS XL flow cytometer (Beckman Coulter, Hialeah, Fla.). A CD38^high fraction enriched for MM cells was determined in side and forward scatter panel in each case. The expression of CD138 on gated cells was also evaluated. After HNK-treatment for 48 h, cells were harvested and percentage of CD38^high cells with or without HNK-treatment was evaluated. […] Cells were stained with propidium iodide (PI; 50 μg/mL; Sigma, St Louis, Mo.), and cell cycle profile was determined by using the program M software on an EPICS XL flow cytometer (Beckman Coulter, Hialeah, Fla.). […] Fluorescence intensity of TUNEL and APO 2.7 staining was determined using on EPICS XL flow cytometer. Cytotoxicity was determined by trypan blue exclusion assay. […] Cell growth and induction of apoptosis were determined both by colorimetric assay and now cytometric detection of APO2.7 after 48 h treatment. […] DNA synthesis was measured by [^3H]-thymidine uptake. […]

Experiment [1] deals with collagen induced arthritis (CIA). Kind of experiment: collagen induced arthritis (CIA). The settings on record: 3 mg/mouse/day i.p. from day 21 post-immunization. The class given is in vivo, C57Bl/6 and LMP1 transgenic mice. Here is the method: Female mice expressing the mCD40-LMP1 transgene (on a CD40−/− background) were bred in our transgenic mouse facility. Mice were either left naïve, immunized in the tail s.c. with […] Type II Chicken Collagen (Sigma) dissolved in 10 mM acetic acid and emulsified in IFA (Sigma) containing 5 mg/ml H37 RA heat-killed mycobacteria (Difco) (CFA), or immunized with 10 mM acetic acid emulsified in CFA. Some of the mice were injected i.p. with 3 mg/mouse/day honokiol suspended in 20% Intralipid, starting at day 21 post-immunization.

Another experiment relates to NFkB in M12.4.1 cells. Kind of experiment: NFkB activation (luciferase assay). The class given is cell-based, Mouse. The settings on record: M12.4.1 cells transfected with hCD40-LMP1; not necessarily to baseline. The procedure: Mouse M12.4.1 cells (1.5×107), stably transfected with hCD40-LMP1 chimeric molecule were transiently transfected with […] 4×NFkB luciferase reporter plasmid and […] Renilla luciferase vector (pRL-null; Promega, Madison, Wis.) by electroporation. Cells (2×10^6 cells/ml) were rested on ice for 15 minutes, treated with medium alone (BCM), 10 mg/ml anti-TNF-a (MP6-XT3; MP6-XT22), or […] Honokiol for 30 minutes, then incubated an additional 6 hours in the presence of BCM, 10 mg/ml anti-(m)ouse or anti-(h)uman CD40 or isotype controls. After stimulation, cells were pelleted, lysed, and assayed for relative luciferase activity (NFkB: Renilla) per manufacturer's protocol (Promega) using a Turner Designs 20/20 luminometer, with settings of 2 second delay followed by 10 second read. (Note: anti-mCD40 reacts with endougenous CD40 and anti-hCD40 reacts with transfected hCD40-LMP1).

Where two headings read alike, the source gives them in different places.

For `C=CCc1ccc(O)c(-c2ccc(O)c(CC=C)c2)c1` [HNK, Honokiol], the cytotoxicity at 10 µg/mL in the experiment with MM.1S cells (24 h) is 30.7 ± 5.5%; in the experiment with MM.1S cells, 27.6 ± 6.4%. Also, in experiment [1], the “collagen induced arthritis (CIA) pathology” value was “stablizes collagen induced arthritis (CIA) pathology”. Moreover, in the experiment on NFkB in M12.4.1 cells, the “NFkB activation (luciferase assay)” value is given as “inhibited by honokiol in a dose dependent manner”.
